Source: patent publication US10213415B2, “Compounds as opioid receptor modulators” (JANSSEN PHARMACEUTICA NV, priority 2004, dated 2019)
Where “and” joins values, the source holds several entries; their conditions need not be identical. Identical values can stand only once. Like-named read-outs stand apart in the source and are kept apart here.

What was measured:
[1] = biological target: T1, human delta subtype 2 opioid receptor (Homo sapiens, UniProt P41143); experiment: Human Delta Opioid Receptor Binding Assay (CHO membranes, 3H-Naltrindole); settings: read-out: hKi δ
T1 construct: purchased Perkin Elmer RBHODM400UA; host or cells: Chinese Hamster Ovary cells (recombinant expression)
Method: This assay is designed to test the ability of a compound to interfere with the binding of tritiated Naltrindole to the human delta subtype 2 opioid receptor. Membranes from Chinese Hamster Ovary cells expressing the human delta subtype 2 opioid receptor (Perkin Elmer #RBHODM400UA) are homogenized in assay buffer (50 mM Tris, pH 7.5 with 5 mM MgCl2) using a glass tissue grinder, Teflon pestle and a Steadfast Stirrer (Fisher Scientific). The concentration of membranes is adjusted to 100 μg/mL in assay buffer and 100 μL is dispensed into each well of the assay plate, a 96 well round bottom polypropylene plate. Compounds to be tested are solubilized in DMSO (Pierce), 10 mM, then diluted in assay buffer to 6× the desired final concentration. The ligand, ^3H-Naltrindole (Perkin Elmer #NET-1065) is also diluted in assay buffer to 6 nM. In a second 96 well round bottom polypropylene plate, known as the premix plate, 60 μL of the 6× compound is combined with 60 μL of 6 nM ^3H-Naltrindole. From this premix plate 50 μL is transferred to the assay plate containing the membranes, in duplicate. The assay plate is incubated for 30 min at room temperature. A GF/C 96 well filter plate (Perkin Elmer #6005174) is pretreated with 0.3% polyethylenimine for 30 min. The contents of the assay plate are filtered through the filter plate using a Packard Filtermate Harvester, and washed 3 times with 0.9% saline that is 4° C. The filter plate is dried, the underside sealed, and 30 μL Microscint20 (Packard #6013621) added to each well. A Topcount-NXT Microplate Scintillation Counter (Packard) is used to measure emitted energies in the range of 2.9 to 35 KeV. Results are compared to maximum binding, wells receiving no inhibitors. Nonspecific binding is determined in the presence of 1 μM unlabelled Naltrindole (Sigma #N115).

[2] = test system: novel environment-stressed mice; experiment: In Vivo Assay-Stress-Induced Fecal Output (Fecal Output for 1 hr); set-up: species or system mouse; settings: for Fecal Output (# pellets) cpd / response vs control in vivo at 30 mg/kg / Fecal Output cpd % control / Fecal Output cpd % NES: 30 mg/kg oral, 1 hr; for Fecal Output (# pellets) cpd: novel environment-stressed mice; for response vs control in vivo at 30 mg/kg: Mus musculus, po, 1 h; for # of pellets, Compound (m) 3.0 / Fecal pellet output, Compound (% control) 3.0 / Fecal pellet output, Compound (% NES) 3.0: dose 3.0, oral; for # of pellets, Compound (m) 3.0 / Fecal pellet output, Compound (% control) 3.0 / # of pellets, Compound (m) 10.0 / Fecal pellet output, Compound (% control) 10.0 / # of pellets, Compound (m) 30.0 / Fecal pellet output, Compound (% control) 30.0: NES mice; for # of pellets, Compound (m) 3.0 / # of pellets, Compound (m) 10.0 / # of pellets, Compound (m) 30.0: fecal output 1 hr; for Fecal pellet output, Compound (% control) 3.0 / Fecal pellet output, Compound (% control) 10.0 / Fecal pellet output, Compound (% control) 30.0: vs acclimated control; for Fecal pellet output, Compound (% NES) 3.0 / Fecal pellet output, Compound (% NES) 10.0 / Fecal pellet output, Compound (% NES) 30: vs vehicle NES group; for # of pellets, Compound (m) 10.0 / Fecal pellet output, Compound (% control) 10.0 / Fecal pellet output, Compound (% NES) 10.0: dose 10.0, oral; for # of pellets, Compound (m) 30.0 / Fecal pellet output, Compound (% control) 30.0: dose 30.0, oral; for Fecal pellet output, Compound (% NES) 30: dose 30, oral
Text: This assay evaluates the fecal output in novel environment-stressed mice to that of acclimated controls.
Methods: Adult, male, Crl:CD-1(ICR) mice, weighing ˜30-35 g were used in these studies, with a minimum of 10 mice per dose group. One group of mice was assigned as acclimated, or “non-stressed” controls. These control mice were transported from colony housing, where they were housed 3/cage in polycarbonate cages with access to food and water ad lib. to the procedure room. The mice were removed from their home cages and individually housed in 20 cm wide×20 cm deep×15 cm tall cages, equipped with a wire mesh bottom where they remained for a 16-18 hr period of acclimation to their novel environment. Mice were allowed access to food and water ad lib. during acclimation. The other groups of mice were assigned as non-acclimated, or “stressed” treatment groups. Each mouse in each group was weighed and vehicle, or test compound, was intragastrically administered by oral intubation in 0.5% methylcellulose. Mice were allowed access to water only ad lib. during the test period. After compound administrations, acclimated (control) as well as non-acclimated (stressed) mice were individually housed in a 20 cm wide×20 cm deep×15 cm tall cage, with a wire mesh bottom. An absorbant cardboard is placed beneath the cages. The number of fecal pellets excreted by each mouse was determined at hourly intervals following placement of the mice in the individual cages. Raw Data=# of fecal pellets/mouse/hr. […]

human mu opioid receptor = biological target: T2, human mu opioid receptor (Homo sapiens, UniProt P35372); experiment: Human Mu Opioid Receptor Binding Assay (CHO membranes, 3H-Damgo); settings: read-out: hKi μ
T2 construct: purchased Perkin Elmer RBHOMM400UA; host or cells: Chinese Hamster Ovary cells (recombinant expression)
Procedure, shortened: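 Radioligand displacement of ³H-Damgo (diluted to 3.6 nM pre-mix) from recombinant human mu receptor in CHO membranes, 2 h, room temperature, 50 mM Tris pH 7.5 with 5 mM MgCl2. Bound label read by filtration and scintillation counting; 1 μM unlabelled Damgo defines nonspecific binding.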

[3] = relative to acclimated control, read-out: Fecal Output cpd % control
[4] = relative to novel environment stress (NES) vehicle group, read-out: Fecal Output cpd % NES
[5] = relative to novel environment stress (NES) vehicle group

T2 sequence (P35372 whole entry): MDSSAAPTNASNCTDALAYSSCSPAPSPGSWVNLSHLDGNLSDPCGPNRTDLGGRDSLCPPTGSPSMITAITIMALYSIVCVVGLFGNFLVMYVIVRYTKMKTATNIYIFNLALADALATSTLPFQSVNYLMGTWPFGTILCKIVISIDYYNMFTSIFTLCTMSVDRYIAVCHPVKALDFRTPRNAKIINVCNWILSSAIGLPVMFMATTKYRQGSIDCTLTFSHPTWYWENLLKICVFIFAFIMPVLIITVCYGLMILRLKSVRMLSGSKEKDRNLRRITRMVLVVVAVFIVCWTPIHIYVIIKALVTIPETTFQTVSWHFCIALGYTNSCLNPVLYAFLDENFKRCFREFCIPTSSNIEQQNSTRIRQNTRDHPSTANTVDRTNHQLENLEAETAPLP
T1 sequence (P41143 whole entry): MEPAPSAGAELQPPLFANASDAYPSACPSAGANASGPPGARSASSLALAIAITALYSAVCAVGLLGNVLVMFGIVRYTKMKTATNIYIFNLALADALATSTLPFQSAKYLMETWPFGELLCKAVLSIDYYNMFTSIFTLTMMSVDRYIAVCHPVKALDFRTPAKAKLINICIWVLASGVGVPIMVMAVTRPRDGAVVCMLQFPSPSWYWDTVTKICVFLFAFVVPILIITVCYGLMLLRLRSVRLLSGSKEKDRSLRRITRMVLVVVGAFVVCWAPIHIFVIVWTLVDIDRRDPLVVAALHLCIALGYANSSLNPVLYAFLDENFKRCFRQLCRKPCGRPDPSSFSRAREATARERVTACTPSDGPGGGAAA

| Structure (SMILES) | Ki [1] | Fecal Output (# pellets) cpd [2] [pellets] | response vs control in vivo at 30 mg/kg [2, 3] [%] | response vs control in vivo at 30 mg/kg [2, 4] [%] | Ki (human mu opioid receptor) [nM] | # of pellets, Compound (m) 3.0 [2] | Fecal pellet output, Compound (% control) 3.0 [2] | Fecal pellet output, Compound (% NES) 3.0 [2] | # of pellets, Compound (m) 10.0 [2] | Fecal pellet output, Compound (% control) 10.0 [2] | Fecal pellet output, Compound (% NES) 10.0 [2] | # of pellets, Compound (m) 30.0 [2] | Fecal pellet output, Compound (% control) 30.0 [2] | Fecal pellet output, Compound (% NES) 30 [2] | Fecal Output cpd % control ([2]; relative to acclimated control) [%] | Fecal Output cpd % NES [2, 5] [%] |
| --- | --- | --- | --- | --- | --- | --- | --- | --- | --- | --- | --- | --- | --- | --- | --- | --- |
| Cc1cc(O)cc(C)c1C[C@H](N)C(=O)N(Cc1ccc(Cl)cc1Cl)[C@@H](C)c1nc(-c2ccccc2)c[nH]1 [Cpd 103] | 9.7 nM | 10.2 | 140 | 79.1 | 23 |  |  |  |  |  |  |  |  |  |  |  |
| Cc1cc(O)cc(C)c1C[C@H](N)C(=O)N(Cc1ccccn1)[C@@H](C)c1nc(-c2ccccc2)c[nH]1 [Cpd 93] | 9.5 nM | 5.0 | 139 | 45 | 0.9 | 6.2 | 229.6 % control | 74.7 % NES | 5.5 | 203.7 % control | 66.27 % NES | 3.2 | 119 % control | 38.55 % NES |  |  |
| COC(=O)c1ccc(CN(C(=O)[C@@H](N)Cc2c(C)cc(O)cc2C)[C@@H](C)c2nc(-c3ccccc3)c[nH]2)cc1 [Cpd 89] | 19.3 nM | 6.4 | 128 | 55.2 | 9.2 |  |  |  |  |  |  |  |  |  |  |  |
| CC(=O)Nc1ccc(CN(C(=O)[C@@H](N)Cc2c(C)cc(O)cc2C)[C@@H](C)c2nc(-c3ccccc3)c[nH]2)cc1 [Cpd 79] | 11.5 nM | 7.1 | 197 | 97.3 | 1.7 |  |  |  |  |  |  |  |  |  |  |  |
| Cc1cc(O)cc(C)c1C[C@H](N)C(=O)N(Cc1nc(-c2cccc(C(=O)O)c2)c(C)[nH]1)C(C)C [Cpd 133] | 108 nM | 9.9 | 180 | 81.8 | 11.5 |  |  |  |  |  |  |  |  |  |  |  |
| Cc1cc(C(N)=O)cc(C)c1C[C@H](N)C(=O)N(C(C)c1ccccc1)[C@@H](C)c1nc(-c2ccccc2)c[nH]1 (single isomer, unassigned) [Cpd 112] | 135 nM | 7.2 |  |  | 9.5 |  |  |  |  |  |  |  |  |  | 100.0 | 69.9 |
| Cc1cc(O)cc(C)c1C[C@H](N)C(=O)N(Cc1ccc(Cl)c(Cl)c1)Cc1nc(-c2ccccc2)c[nH]1 [Cpd 87] | 38.9 nM | 10.3 | 141 | 79.8 | 12.6 |  |  |  |  |  |  |  |  |  |  |  |
| Cc1cc(C(N)=O)cc(C)c1C[C@H](N)C(=O)N(Cc1ccccc1)[C@@H](C)c1nc(-c2ccc(Cl)cc2)c(C)[nH]1 [Cpd 58] | 70 nM | 3.9 | 170 | 55.7 | 8.5 |  |  |  |  |  |  |  |  |  |  |  |
| Cc1cc(O)cc(C)c1C[C@H](N)C(=O)N(Cc1c(Cl)cccc1Cl)[C@@H](C)c1nc(-c2ccccc2)c[nH]1 [Cpd 97] | 6.3 nM | 4.8 | 65.8 | 37.2 | 19.2 | 14 and 9.1 | 226.2 % control and 189.6 % control | 119 % NES and 90.1 % NES | 7.5 and 10.4 | 123.0 % control and 216.7 % control | 64.66 % NES and 103 % NES | 3.5 and 2.3 | 57 % control and 48 % control | 30.17 % NES and 22.77 % NES |  |  |
| Cc1cc(C(N)=O)cc(C)c1C[C@H](N)C(=O)N(Cc1ccccc1)Cc1nc(-c2ccccc2)c[nH]1 [Cpd 107] | 584 nM | 13.1 | 230 | 87.3 | 2.95 |  |  |  |  |  |  |  |  |  |  |  |
| CNc1ccc(CN(C(=O)C(N)Cc2c(C)cc(O)cc2C)C(C)c2nc(-c3ccccc3)c[nH]2)cc1 (stereo not drawn) [Cpd 78] | 28.9 nM | 3.3 | 91.7 | 45.2 | 2.4 |  |  |  |  |  |  |  |  |  |  |  |
| Cc1cc(C(N)=O)cc(C)c1C[C@H](N)C(=O)N(C(C)c1ccccc1)[C@@H](C)c1nc(-c2ccccc2)c[nH]1 (single isomer, unassigned) [Cpd 111] | 307 nM | 4.4 |  |  | 6.4 |  |  |  |  |  |  |  |  |  | 60.8 | 42.5 |
| Cc1cc(O)cc(C)c1C[C@H](N)C(=O)N(C(C)C)[C@@H](CO)c1nc(-c2ccccc2)c[nH]1 [Cpd 118] | 316 nM and 212 nM | 7.2 | 134 | 60.2 | 1.04 |  |  |  |  |  |  |  |  |  |  |  |
| Cc1cc(C(N)=O)cc(C)c1C[C@H](N)C(=O)N(Cc1nc(-c2ccccc2)c[nH]1)[C@H](C)c1ccccc1 [Cpd 94] | 403 nM | 9.4 | 348 | 103 | 4.1 |  |  |  |  |  |  |  |  |  |  |  |
| Cc1cc(O)cc(C)c1C[C@H](N)C(=O)N(Cc1cccnc1)[C@@H](C)c1nc(-c2ccccc2)c[nH]1 [Cpd 92] | 5.4 nM | 9.2 | 256 | 82.9 | 0.25 |  |  |  |  |  |  |  |  |  |  |  |
